SMILES	melting point [°C]
COC(=O)CCCCOc1ccc(CNC(=O)C2Cc3ccccc3N2S(=O)(=O)c2ccc(-c3cccc(C(F)(F)F)c3)cc2)cc1 (stereo not drawn)	50
CC(C)(C)c1cc(C(=O)Nc2cccnc2NC(=O)NC23CC4CC(CC(C4)C2)C3)cc(C(C)(C)C)c1O	198 to 202
O=S(=O)(c1ccc(F)cc1)c1c[nH]c2ncccc12	212 to 213
O=C(O)C1c2cccnc2NN1C(=O)O (stereo not drawn)	270 to 285
Nc1nc2c([nH]c(=O)n2Cc2cccs2)c(=O)[nH]1	> 300
CC(=O)SCC1(CSC(C)=O)C(=O)N2CCCC(C(=O)OC(C)(C)C)N2C1=O (stereo not drawn)	85 to 86
Cc1nc2ncnn2c2c1CCN2Cc1ccccc1	170 to 172
CC=C(C#N)c1cccnc1	46 to 47
CN1Cc2c(C#C[Si](C)(C)C)ncn2-c2ccc(F)cc2C1=O	184 to 185
CCc1nc2cc(C(N)=O)c(Cl)cc2n1-c1ccc(CCOC(=O)NS(=O)(=O)c2ccc(C)cc2)cc1	170 to 175
O=C1c2c(ccc(F)c2Cl)-n2cnc(-c3noc(CCl)n3)c2[C@@H]2CCN12	214 to 217
COc1ccc(OC)c(CC(=O)c2c(O)c3cccnc3n(-c3ccccc3)c2=O)c1	159 to 161
Cc1cc(Cl)ccc1OCc1nn(C)c(=O)o1	108 to 110
O=CNC1CCc2ccccc2N(C=O)C1 (stereo not drawn)	130
CN1Cc2c(C(=O)OC(C)(C)C)ncn2-c2cccc(Br)c2C1=O	207 to 208
CC(C)(C)c1nc2cc(N3CCCCC3)c(N=C=S)cc2s1	112 to 114
O=C(O)c1ccc(OS(=O)(=O)C(F)(F)F)cc1	178 to 180
O=C1NCC(Cc2ccc3c(c2)OCO3)O1 (stereo not drawn)	98.5 to 100
C=C(C)C(=O)Nc1ccc(Nc2ccccc2)cc1	101 to 103
CC(=O)NC1CCC2C(C1)c1c(OC(C)=O)cc(OC(C)CCCc3ccccc3)cc1N(C)C2C (stereo not drawn)	120 to 122
O=C1OC2(CCc3ccccc32)c2ccccc21 (stereo not drawn)	138 to 139

SMILES	melting point [°C]
O=C(O)c1ccc(-c2nc(-c3ccc(F)cc3)c(-c3ccncc3)[nH]2)cc1	289 to 290
O=C(NCc1ccc([N+](=O)[O-])cc1)OCc1ccccc1	92 to 93
Cc1c(O)cc(O)cc1C(=O)OCc1ccc([N+](=O)[O-])cc1	160 to 163
COCCNC(NC(=O)c1cccnc1)C(Cl)(Cl)Cl (stereo not drawn)	75 to 77
CC(=O)NC[C@H]1CN(c2ccc(N3CCN(c4ccc([N+](=O)[O-])o4)CC3)c(F)c2)C(=O)O1	191 to 204
COC(=O)CCc1ccc(O)c(C(C)(C)C)c1	59 to 61
CS(=O)(=O)NC1CCC(NC(=O)Nc2ccc(C(F)(F)F)cc2)CC1 (stereo not drawn)	237 to 239
Cc1nnnn1-c1ncccc1C(=O)O	178 to 180
Cc1cccc2c1CCN(C1CN3CCC1CC3)C2=O (racemic)	> 270
OCc1coc(-c2cccs2)n1	98 to 99
CNC(N)=C(CCSCc1csc(CN(C)C)n1)[N+](=O)[O-]	130 to 132
O=C1NC(=O)N2c3ccccc3[C@H]3CCN4CCC[C@H]1[C@H]4[C@H]32 (racemic)	235
CCOC(=O)C1=C(C)Nc2nc(N3CCOCC3)nc(N3CCOCC3)c2C1c1ccccc1C (stereo not drawn)	234
Cc1c(-c2ccc(OCc3ccccc3)cc2)n(C(=O)c2ccc(OCCN3CCCCC3)cc2)c2ccc(OCc3ccccc3)cc12	48 to 51
Cc1nc(N2CCN(CC3CC3(F)F)C2=O)sc1C(=O)O (stereo not drawn)	210 to 215
COC(=O)c1ccc(NN=CC(F)(F)F)cc1S(=O)(=O)NC(=O)Nc1nc(OC)cc(OC)n1	201 to 202
COc1ccc2cc([C@H](C)C(=O)OC/C=C\CO)ccc2c1	69 to 71
Cc1ccc(Cl)nc1N1CCCNC1=C[N+](=O)[O-]	176 to 183
CCNC1CC=C(c2c[nH]c3cc(NC(=N)c4cccs4)ccc23)CC1 (stereo not drawn)	95 to 97
COC(=O)c1cc(-c2ccc(SC)cc2)nn(CC=Cc2ccc(Cl)cc2)c1=O	123 to 126
CCCCOC(=O)c1nn(-c2ccc(I)cc2)c(C)cc1=O	134 to 137

Now from value to compound:

melting point [°C]	SMILES
126 to 127	O=C1CC(Sc2ccccc2)C(O)(c2ccccc2)C(Sc2ccccc2)C1 (stereo not drawn)
119 to 120	COc1ccc(OCCC2CCN(c3cc(Cl)nnc3Cl)CC2)cc1
258	Cn1c(=O)c(C#N)c(Cl)c2cc(F)ccc21
128 to 131	COc1ccc(C#Cc2ccncc2)c2c1OC1(CCCC1)C2
205 to 206	O=C(O)c1ccccc1Nc1ccc(I)cc1
102 to 107	CCCCN(C)CCOc1ccc(-n2c(-c3ccc(O)cc3)c(C)c3cc(O)ccc32)cc1
148 to 153	O=C(O)CCC(=O)c1ccc(-c2ccccc2F)cc1
93	CCCCCCCCC1(C)Cc2ccc(-c3nc4cc(CCCC)ccc4o3)cc2C1=O (stereo not drawn)
96 to 97	COc1ccc(N(CCCCCO)S(=O)(=O)c2c(F)c(F)c(F)c(F)c2F)cc1
132 to 135	Cc1ccccc1CC(C(=O)O)C(=O)O
115 to 119	CC(C)(C)CNc1nc(Cl)cc(NC(C)(C)C)n1
212	Cc1nc(Cl)c2c(-c3ccc([N+](=O)[O-])o3)nn(C)c2n1
73 to 75	O=C(NCCNCCNC(=O)OCc1ccccc1)OCc1ccccc1
74 to 76.5	CCOC(=O)N1CC[C@H](Oc2cccc(F)c2)[C@H](c2ccccc2)C1 (relative stereo)
197 to 200	O=[N+]([O-])c1ccc(OCCc2c[nH]cn2)cc1
> 260	O=C1c2ccccc2C(=O)c2sc(-c3ccc(F)cc3)nc21

melting point [°C]	SMILES
188 to 189	O=C(COc1ccc2ccccc2c1)NCc1ccc(C(=O)O)cc1
106 to 107	CCOC(=O)N1CCC(=C2c3ccccc3CCc3cccnc32)CC1
192	CC1(C)CCC(C)(C)c2cc(-c3cc(-c4ccc(C(=O)O)cc4)ccc3OCCCNC3CC3)ccc21
165	COc1ccc(-c2c(C)c3cccc4c3n2CC(CCN2CCN(c3cc(C)ccn3)CC2)O4)cc1 (stereo not drawn)
200 to 202	N#CCN1c2ccc([N+](=O)[O-])cc2CS1(=O)=O
33 to 34	CCCCCCCCCCCCCCCCCCC(CC1(C)OCCO1)C(=O)OCC (stereo not drawn)
210	Nc1ccc2ccc(-c3ccc(Cl)c(Cl)c3)nc2n1
208 to 210	COC(=O)CCCCCCCCOC1OC(CO)C(O)C(OC2OC(CO)C(O)C(O)C2O)C1NC(C)=O (stereo not drawn)
136 to 142	CC(C)OC(=O)Cn1c(=O)n(C)c(=O)n(-c2cc(-n3c(=O)n4n(c3=S)CCCC4)c(F)cc2Cl)c1=O
106 to 108	O=C(Cc1cccc(Cl)c1)c1ccn(S(=O)(=O)c2ccccc2)c1
306 to 307	CC(C)Cn1cnc2c(N)nc3cnccc3c21
137	CCC(Cl)c1nc2cccnc2[nH]1 (stereo not drawn)
115 to 116	CS(=O)(=O)On1nnc2ccc([N+](=O)[O-])cc21
102 to 128	NC(=O)C1CCCC(C(=O)O)C1 (stereo not drawn)
141 to 142	O=S(=O)(ON=C1CCCc2ccccc21)c1ccc(O)cc1

From a melting point compilation (Tetko et al.; mined from patent text by program, amines drawn as free bases though some values may be those of a salt)
